Test results published in patent US11707070B2, “Inhibition of fungal growth by manganese depletion” (Chr. Hansen A/S, priority 2018, dated 2023).
Where two headings read alike, the source gives them in different places.

How the values were obtained:
[1] = tested on: Debaryomyces hansenii; test: Yeast growth in yogurt with EDTA or scavenger (Example 9); assay type: cell-based; conditions: added to reference yogurt; FIG. 14
Method: The concentration of EDTA ranges from 14 mg/ml (top row), 7.10 mg/ml, 3.55 mg/ml, 1.78 mg/ml, 0.89 mg/ml, 0.44 mg/ml, 0.22 mg/ml to 0 mg/ml (bottom row).

[2] = tested on: Debaromyces hansenii
Method: Absorbance at 600 nm was measured after 7 days of incubation at 17° C., compared to reference. Samples made in triplicate.
Two concentrations of manganese were used, 6 ppm and 0.6 ppm, in example 8.

[3] = tested on: Debaryomyces hansenii; conditions: chemically defined medium, pH 6.5 or 4.5; 6 days at 17° C.; FIGS. 1 and 2
Method: Two D. hansenii isolated from spoiled yogurt (strain 1) and quark (strain 2), respectively, were used.
The minimal medium contains biotin 2 μg/L, calcium pantothenate 400 μg/L, folic acid 2 μg/L, inositol 2 mg/L, nicotinic acid 400 μg/L, p-amino benzoic acid 200 μg/L, pyridoxine 400 μg/L, riboflavin 200 μg/L, thiamine 400 μg/L, Boric acid 500 μg/L, copper sulfate 40 μg/L, potassium iodide 100 μg/L, ferric chloride 200 μg/L, sodium molybdate 200 μg/L, zinc sulfate 400 μg/L, potassium phosphate monobasic 0.5 g/L, potassium phosphate dibasic 0.5 g/L, magnesium sulfate 0.5 g/L, sodium chloride 0.1 g/L, calcium chloride 0.2 g/L, glucose 20 g/L, ammonium sulfate 5 g/L.
Two different pH were tested: pH 6.5 and 4.5.
The strains were inoculated to 150 μl of the different medium in a 96 well plate. The plates were incubated at 17° C. for several days and the growth of the yeast strains was followed by measuring absorbance at 600 nm in a plate reader.

[4] = tested on: Cryptococcus fragicola; test: Yeast agar-assay on fermented milk plates (Example 6); assay type: cell-based; conditions: added manganese on fermented milk agar plates
Method: Influence of manganese on the inhibitory effect against different molds were evaluated. An agar-assay resembling the manufacturing process and production of fermented milk products was used. L. rhamnosus and L. paracasei were used together as manganese scavenging agents. Reduced-fat (1.5% w/v) homogenized milk was heat-treated at 90±1° C. for 20 min and cooled immediately. A commercial starter culture (Streptococcus thermophilus and Lactobacillus delbrueckii subsp. bulgaricus) was inoculated at 0.02% (v/w) in 3 L buckets. […] The fermented milk products were divided into 200 mL bottles and cooled down. […] All the fermented milk samples were warmed to a temperature of 40° C. and added 40 ml of a 5% sterile agar solution that had been melted and cooled down to 60° C. This solution of fermented milk and agar was then poured into sterile Petri dishes and the plates were dried in a LAF bench for 30 min. Three target contaminants, including two Debaryomyces hansenii (strain 1 and strain 2) and one Cryptococcus fragicola were spotted in concentrations of 10^3, 10^2 and 10^1 CFU/spot. Plates were incubated at 7±1° C. and regularly examined for the growth of yeast.

Question: What does the source list for O=C(O)CN(CCN(CC(=O)O)CC(=O)O)CC(=O)O [EDTA, ethylenediaminetetraacetic acid]?
Answer: concentration reproducing the inhibition of manganese scavenging agent 1 [1]: up to 0.89 mg/ml; concentration at which cells stop growing (inhibitory effect) ([2]; FIG. 12, aqueous phase filtered with 1.2 μm filter, 7 days at 17° C.): 0.05 mg/mL; effect on growth of adding 0.6 ppm of manganese together with 0.05 mg/ml EDTA ([2]; FIG. 13, 0.05 mg/ml EDTA + 0.6 ppm manganese): restores the growth; concentration at which cells stop growing (inhibitory effect) ([2]; FIG. 13, aqueous phase filtered with 0.2 μm filter, absence of manganese (0.6 ppm)): 0.05 mg/mL

Question: What does the source list for [Mn+2] [manganese]?
Answer: manganese concentration below which growth is inhibited [3]: < 0.01 ppm; manganese concentration with inhibitory/toxic effect on yeast growth ([2]; Example 8): 6 ppm; Manganese concentration that seemed to inhibit the growth [4]: 6 ppm
